Consider nine molecules from PubChem BioAssay (NCI).

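Growth conditions: 96-well plates. Treatment: test compound, 48 hours, 5 concentrations. Analysis: linear interpolation between bracketing concentrations; unreached endpoints set to highest concentration. TGI is the concentration that stops growth completely.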

Common to all, as to assay: NCI-60 cell line screen, 48 h
Test [1] relates to MDA-N.
For test [2], the system named is NCI-H522 lung.
For test [3], the system named is CAKI-1 renal.
In test [4] the test system is SK-MEL-2 melanoma.
Test [5] concerns HCC-2998 colon.
The subject of test [6] is 786-0 renal.
The subject of test [7] is CCRF-CEM leukemia.
For test [8], the system named is UO-31 renal.
Test [9] deals with MALME-3M melanoma.
Test [10] concerns DU-145 prostate.
In test [11] the test system is HCT-15 colon.
The test system of test [12] is OVCAR-4 ovarian.
Test [13] relates to A549 NSCLC.
Test [14] deals with SK-MEL-5 melanoma.
Test [15] deals with RXF 393 renal.
In test [16] the test system is HOP-92 NSCLC.
Test [17] deals with HCT-116 colon.
For test [18], the system named is SK-OV-3 ovarian.
The test system of test [19] is MCF7 breast.

Consider `CN(C)/C=C/c1c2c(nc3ccccc13)C(=O)c1cccnc1C2=O`, for which the TGI in test [1] is 1.92 µM; in [2], 1.13 µM; in test [3], over 38.7 µM; in [4] it was 4.1 µM; in test [5], 2.6 µM; in [6] it was 1.33 µM. Besides, the TGI in test [7] was 9.28 µM; in test [8], 3.02 µM; in [9] it was 2.26 µM; in [10] it was 1.47 µM; in test [11], 1.07 µM; in test [12], 4.01 µM. Moreover, the TGI in test [13] came to 2.59 µM; in test [14] it was 0.346 µM; in test [15] it was 3.48 µM; in test [16], 11.5 µM; in test [17], 0.697 µM; in test [18], 1.16 µM.

Take `O=C1c2cn[nH]c2N=C(Nc2ccccc2)C1N=Cc1ccc([N+](=O)[O-])cc1` (stereo not drawn): the TGI in test [19], in test [1], in test [2], in [5], in [6] and in test [7] was over 10 µM in each case. The TGI in [8], in test [9], in test [10], in [12], in test [13] and in test [14] was over 10 µM in each case. This molecule came in with a TGI in test [17] of over 10 µM.

With `Cc1oc2nc(N(C)C)nc(NN)c2c1C`, the TGI in test [2], in [3], in test [4], in [5], in test [6] and in test [7] was over 100 µM in each case. Besides, the TGI in [8], in [10], in test [11], in test [12], in [13] and in test [14] was over 100 µM in each case. Also, the TGI in test [15], in test [16] and in [17] was over 100 µM in each case.

As to `NNC(=O)CC(=O)Nc1ccc(S(=O)(=O)c2ccc(NC(=O)CC(=O)NN)cc2)cc1`, the TGI in [2], in [3], in test [4], in test [5], in [6] and in test [7] was over 100 µM in each case. For the same molecule, the TGI in test [8], in [10], in test [11], in test [12], in test [13] and in test [14] was over 100 µM in each case. Also, the TGI in [15], in test [16], in test [17] and in [18] was over 100 µM each time.

On to `CC(C)=NOC(=O)OC[C@H]1O[C@@H](n2cnc3c(N)ncnc32)C(O)C1O` (stereo partly drawn), for which the TGI in test [19], in test [1], in [2], in test [4], in test [5] and in test [6] was over 100 µM each time. Moreover, the TGI in [7], in [8], in [9], in test [10], in test [11] and in [12] was over 100 µM each time. The TGI in test [13], in [14], in test [15] and in test [18] was over 100 µM each time.

As to `O=C1CCCCCCCCCCC1CN1CCOCC1` (stereo not drawn), the TGI in test [19], in [1], in test [2], in [5], in [6] and in test [7] was over 100 µM in each case. Besides, the TGI in test [8], in [9], in [10], in [11], in test [12] and in test [13] was over 100 µM in each case. Besides, the TGI in test [14], in [15], in [16], in test [17] and in [18] was over 100 µM each time.

Consider `COc1ccc2c(=O)c3c([nH]c2c1)OCC3=O`, for which the TGI in test [19], in test [3], in test [4], in [5], in test [6] and in [7] was over 100 µM each time. Also, the TGI in test [8], in test [10], in [11], in [12], in [14] and in test [15] was over 100 µM in each case. For the same molecule, the TGI in test [16], in test [17] and in test [18] was over 100 µM each time.

As for `O=S(=O)(O)c1cc(S(=O)(=O)O)c2c(N=Nc3ccc(S(=O)(=O)O)c4ccccc34)c(O)ccc2c1`, the TGI in [1], in [2], in [3], in test [4], in test [6] and in [7] was over 100 µM throughout. The TGI in [8], in test [9], in [10], in [11], in test [12] and in test [13] was over 100 µM in each case. The TGI in test [14], in test [15], in [16], in test [17] and in [18] was over 100 µM each time.

As for `N#Cc1sc2c(c1OC(=O)c1ccc(Cl)cc1Cl)c(=O)n(-c1ccccc1)c(=S)n2-c1ccccc1`, the TGI in test [19] is 73.4 µM; in test [2], 7.3 µM; in [3], 54.5 µM; in [5], over 100 µM; in [6] it was 77.3 µM; in test [7] it was 26.7 µM. The TGI is 0.424 µM in [8]; over 100 µM in test [10]; 59.5 µM in test [11]; 66.5 µM in [12]; over 100 µM in test [13]; 34.6 µM in test [14]. Moreover, the TGI in test [15] was 42 µM; in test [16] it was 68.9 µM; in test [17], 39.2 µM; in test [18], over 100 µM.
